Experimental data as given in patent publication US20160304461A1, “QUINOLONE COMPOUND AND PHARMACEUTICAL COMPOSITION” (OTSUKA PHARMACEUTICAL CO., LTD., priority 2007, published 2016).

What was measured:
[1] = system: human neuroblastoma cell lines SH-SY5Y; assay: Improvement of mitochondrial dysfunction in MPP+-treated SH-SY5Y cells (Alamar Blue mitochondrial oxidation reduction activity); type: cell-based; conditions: SH-SY5Y cells in 1.5 mM MPP+ medium, relative to cells in DMSO alone = 100%, read-out: Fluorescence Intensity (%); for activity at 0.01 µg/mL: test compound 0.01 μg/ml; for activity at 0.03 µg/mL: test compound 0.03 μg/ml; for activity at 0.1 µg/mL: test compound 0.1 μg/ml; for activity at 0.3 µg/mL: test compound 0.3 μg/ml; for activity at 1 µg/mL: test compound 1 μg/ml
Protocol: Evaluation of Improvement of Mitochondrial Dysfunction using Human Neuroblastoma Cell Lines SH-SY5Y Treated with 1-methyl-4-phenylpyridinium (MPP^+)
In human neuroblastoma cell lines SH-SY5Y in which mitochondrial activity was injured by MPP^+ treatment (Bollimuntha S. et al., J Biol Chem, 280, 2132-2140 (2005) and Shang T. et al., J Biol Chem, 280, 34644-34653 (2005)), improvement of the mitochondrial dysfunction was evaluated on the basis of the measurement value of the mitochondrial oxidation reduction activity using Alamar Blue fluorescent dye after the compound addition (Nakai M. et. al, Exp Neurol, 179, 103-110 (2003)).
The human neuroblastoma cell lines SH-SY5Y were cultured in Dulbecco's Modified Eagle's Medium containing 10% fetal bovine serum (DMEM containing 50 units/ml penicillin and 50 μg/ml streptomycin as antibiotics) at 37° C. in the presence of 5% carbon dioxide. Cells were scattered on a poly-D-lysine-coated 96-well black plate at a concentration of 3-6×10^4 cells/cm^2 (medium amount: 100 μl/well), and cultured in the above medium for two days. Further, the medium was changed to a DMEM containing a 1% N2 supplement (N2-DMEM) or to a medium (100 μl/well) in which 1.5 mM MPP^+ was dissolved. The cells were cultured therein for 39 to 48 hours, and then subjected to a mitochondrial oxidation reduction activity measurement system. A sample compound that had been previously dissolved in dimethyl sulfoxide (DMSO) was diluted with N2-DMEM, and added in a volume of 10 μl/well 24 hours before the activity measurement (final compound concentration: 0.01 to 1 μg/ml).
After removal of the medium by suction, a balanced salt solution containing 10% Alamar Blue (154 mM sodium chloride, 5.6 mM potassium chloride, 2.3 mM calcium chloride, 1.0 mM magnesium chloride, 3.6 mM sodium bicarbonate, 5 mM glucose, 5 mM HEPES, pH 7.2) was added in a volume of 100 μl/well, and reacted in an incubator at 37° C. for 1 hour. The fluorescent intensity was detected using a fluorescence detector (a product of Hamamatsu Photonics K.K., excitation wavelength 530 nm, measurement wavelength 580 nm) to thereby measure the mitochondrial oxidation reduction activity.
The fluorescent intensity of the well of the cells cultured in a medium containing MPP^+ and in each of the sample compounds was relatively evaluated based on a 100% fluorescent intensity of the well of the cells cultured in a medium containing DMSO alone (final concentration: 0.1%).

CCCOc1ccc(F)c2c(=O)c(-c3ccc(CC)cc3)c[nH]c12 [Example 53, 3-(4-Ethylphenyl)-5-fluoro-8-propoxy-1H-quinolin-4-one]
activity at 0.01 µg/mL [1]: 53%
activity at 0.03 µg/mL [1]: 56%
activity at 0.1 µg/mL [1]: 67%
activity at 0.3 µg/mL [1]: 60%
activity at 1 µg/mL [1]: 67%
melting point: 153 to 154 °C

CCCOc1ccc(F)c2c(=O)c(-c3ccsc3)c[nH]c12 [Example 3, 5-Fluoro-8-propoxy-3-thiophen-3-yl-1H-quinolin-4-one]
activity at 0.01 µg/mL [1]: 54%
activity at 0.03 µg/mL [1]: 63%
activity at 0.1 µg/mL [1]: 70%
activity at 0.3 µg/mL [1]: 78%
activity at 1 µg/mL [1]: 74%
melting point: 208 to 210 °C

COc1ccc(-c2c[nH]c3c(-c4ccco4)ccc(F)c3c2=O)cc1 [Example 86, 5-Fluoro-8-furan-2-yl-3-(4-methoxyphenyl)-1H-quinolin-4-one]
activity at 0.01 µg/mL [1]: 52%
activity at 0.03 µg/mL [1]: 59%
activity at 0.1 µg/mL [1]: 68%
activity at 0.3 µg/mL [1]: 61%
activity at 1 µg/mL [1]: 39%
melting point: 209 to 211 °C

CCCOc1ccc(F)c2c(=O)c(-c3ccc(OC)cc3)cn(CC)c12 [Example 92, 1-Ethyl-5-fluoro-3-(4-methoxyphenyl)-8-propoxy-1H-quinolin-4-one]
activity at 0.01 µg/mL [1]: 63%
activity at 0.03 µg/mL [1]: 75%
activity at 0.1 µg/mL [1]: 77%
activity at 0.3 µg/mL [1]: 69%
activity at 1 µg/mL [1]: 55%
melting point: 123 to 125 °C

CCCOc1ccc(F)c2c(=O)c(-c3ccc(OC)cc3)cn(C)c12 [Example 91, 5-Fluoro-3-(4-methoxyphenyl)-1-methyl-8-propoxy-1H-quinolin-4-one]
activity at 0.01 µg/mL [1]: 65%
activity at 0.03 µg/mL [1]: 69%
activity at 0.1 µg/mL [1]: 81%
activity at 0.3 µg/mL [1]: 82%
activity at 1 µg/mL [1]: 83%
melting point: 147 to 148 °C

CCCOc1ccc(F)c2c(=O)c(-c3ccoc3)c[nH]c12 [Example 1, 5-Fluoro-3-furan-3-yl-8-propoxy-1H-quinolin-4-one]
activity at 0.01 µg/mL [1]: 51%
activity at 0.03 µg/mL [1]: 62%
activity at 0.1 µg/mL [1]: 70%
activity at 0.3 µg/mL [1]: 66%
activity at 1 µg/mL [1]: 64%
melting point: 214 to 215 °C

CCCOc1ccc(F)c2c(=O)c(-c3ccc(SC)cc3)c[nH]c12 [Example 38, 5-Fluoro-3-(4-methylsulfanylphenyl)-8-propoxy-1H-quinolin-4-one]
activity at 0.01 µg/mL [1]: 66%
activity at 0.03 µg/mL [1]: 67%
activity at 0.1 µg/mL [1]: 86%
activity at 0.3 µg/mL [1]: 81%
activity at 1 µg/mL [1]: 78%
melting point: 198 to 199 °C

CCCOc1ccc(F)c2c(=O)c(-c3cccs3)c[nH]c12 [Example 59, 5-Fluoro-8-propoxy-3-thiophen-2-yl-1H-quinolin-4-one]
activity at 0.01 µg/mL [1]: 53%
activity at 0.03 µg/mL [1]: 56%
activity at 0.1 µg/mL [1]: 67%
activity at 0.3 µg/mL [1]: 66%
activity at 1 µg/mL [1]: 54%
melting point: 211 to 213 °C

CCCOc1ccc(F)c2c(=O)c(-c3ccsc3CO)c[nH]c12 [Example 100, 5-Fluoro-3-(2-hydroxymethylthiophen-3-yl)-8-propoxy-1H-quinolin-4-one]
activity at 0.01 µg/mL [1]: 56%
activity at 0.03 µg/mL [1]: 56%
activity at 0.1 µg/mL [1]: 71%
activity at 0.3 µg/mL [1]: 73%
activity at 1 µg/mL [1]: 84%
melting point: 181 to 184 °C

COc1ccc(-c2c[nH]c3c(OC4CCCC4)ccc(F)c3c2=O)cc1 [Example 37, 8-Cyclopentyloxy-5-fluoro-3-(4-methoxyphenyl)-1H-quinolin-4-one]
activity at 0.01 µg/mL [1]: 64%
activity at 0.03 µg/mL [1]: 73%
activity at 0.1 µg/mL [1]: 78%
activity at 0.3 µg/mL [1]: 70%
activity at 1 µg/mL [1]: 61%
melting point: 213 to 215 °C

CCCOc1ccc(F)c2c(=O)c(-c3ccc(OC)cc3)cn(CCOCC)c12 [Example 93, 1-(2-Ethoxyethyl)-5-fluoro-3-(4-methoxyphenyl)-8-propoxy-1H-quinolin-4-one]
activity at 0.01 µg/mL [1]: 66%
activity at 0.03 µg/mL [1]: 79%
activity at 0.1 µg/mL [1]: 86%
activity at 0.3 µg/mL [1]: 80%
activity at 1 µg/mL [1]: 69%
melting point: 108 to 109 °C

CCCOc1cc(F)c(F)c2c(=O)c(-c3ccc(OC)cc3)c[nH]c12 [Example 21, 5,6-Difluoro-3-(4-methoxyphenyl)-8-propoxy-1H-quinolin-4-one]
activity at 0.01 µg/mL [1]: 52%
activity at 0.03 µg/mL [1]: 59%
activity at 0.1 µg/mL [1]: 63%
activity at 0.3 µg/mL [1]: 74%
activity at 1 µg/mL [1]: 57%
melting point: 198 to 200 °C

CCCOc1ccc(F)c2c(=O)c(-c3ccc(OC(F)(F)F)cc3)c(C)[nH]c12 [Example 70, 5-Fluoro-2-methyl-8-propoxy-3-(4-trifluoromethoxyphenyl)-1H-quinolin-4-one]
activity at 0.01 µg/mL [1]: 56%
activity at 0.03 µg/mL [1]: 57%
activity at 0.1 µg/mL [1]: 67%
activity at 0.3 µg/mL [1]: 71%
activity at 1 µg/mL [1]: 63%
melting point: 167 to 168 °C

CCCOc1ccc(F)c2c(=O)c(-c3ccc(OC)c(OC)c3)c[nH]c12 [Example 62, 3-(3,4-Dimethoxyphenyl)-5-fluoro-8-propoxy-1H-quinolin-4-one]
activity at 0.01 µg/mL [1]: 66%
activity at 0.03 µg/mL [1]: 62%
activity at 0.1 µg/mL [1]: 79%
activity at 0.3 µg/mL [1]: 84%
activity at 1 µg/mL [1]: 80%
melting point: 217 to 218 °C

COCCOc1ccc(F)c2c(=O)c(-c3ccc(OC)cc3)c[nH]c12 [Example 36, 5-Fluoro-8-(2 methoxyethoxy)-3-(4-methoxyphenyl)-1H-quinolin-4-one]
activity at 0.01 µg/mL [1]: 63%
activity at 0.03 µg/mL [1]: 65%
activity at 0.1 µg/mL [1]: 74%
activity at 0.3 µg/mL [1]: 71%
activity at 1 µg/mL [1]: 91%
melting point: 142 to 144 °C

COc1ccc(-c2c(C)[nH]c3c(OCC4CC4)ccc(F)c3c2=O)cc1 [Example 47, 8-Cyclopropylmethoxy-5-fluoro-3-(4-methoxyphenyl)-2-methyl-1H-quinolin-4-one]
activity at 0.01 µg/mL [1]: 51%
activity at 0.03 µg/mL [1]: 58%
activity at 0.1 µg/mL [1]: 71%
activity at 0.3 µg/mL [1]: 73%
activity at 1 µg/mL [1]: 82%
melting point: 167 to 169 °C

COCCN(C)c1ccc(F)c2c(=O)c(-c3ccc(OC)cc3)c[nH]c12.Cl [Example 34, 5-Fluoro-8-[N-(2-methoxyethyl)-N-methylamino]-3-(4-methoxyphenyl)-1H-quinolin-4-one hydrochloride]
activity at 0.01 µg/mL [1]: 69%
activity at 0.03 µg/mL [1]: 74%
activity at 0.1 µg/mL [1]: 77%
activity at 0.3 µg/mL [1]: 78%
activity at 1 µg/mL [1]: 87%
melting point: 100 to 101 °C

CCn1cc(-c2ccc(OC)cc2)c(=O)c2c(F)ccc(OCC3CC3)c21 [Example 66, 8-Cyclopropylmethoxy-1-ethyl-5-fluoro-3-(4-methoxyphenyl)-1H-quinolin-4-one]
activity at 0.01 µg/mL [1]: 66%
activity at 0.03 µg/mL [1]: 72%
activity at 0.1 µg/mL [1]: 83%
activity at 0.3 µg/mL [1]: 77%
activity at 1 µg/mL [1]: 60%
melting point: 150 to 152 °C

CCCOc1ccc(F)c2c(=O)c(-c3ccc(OC)nc3)c[nH]c12 [Example 63, 5-Fluoro-3-(6-methoxypyridin-3-yl)-8-propoxy-1H-quinolin-4-one]
activity at 0.01 µg/mL [1]: 58%
activity at 0.03 µg/mL [1]: 65%
activity at 0.1 µg/mL [1]: 74%
activity at 0.3 µg/mL [1]: 75%
activity at 1 µg/mL [1]: 85%
melting point: 215 to 216 °C

CCCOc1ccc(F)c2c(=O)c(-c3ccc(OC)cc3)cn(CC3CC3)c12 [Example 94, 1-Cyclopropylmethyl-5-fluoro-3-(4-methoxyphenyl)-8-propoxy-1H-quinolin-4-one]
activity at 0.01 µg/mL [1]: 56%
activity at 0.03 µg/mL [1]: 67%
activity at 0.1 µg/mL [1]: 69%
activity at 0.3 µg/mL [1]: 59%
activity at 1 µg/mL [1]: 41%
melting point: 60 to 62 °C
